We go through one compound from patent publication US8354447B2, “mGLU receptors antagonists for treating disorders associated with mGLU receptors including addiction and depression” (The Scripps Research Institute, priority 2002, dated 2013).

The subject of assay [1] is male Wistar rats. The assay is described as follows: ICSS thresholds during and after withdrawal from chronic nicotine, bupropion. Type of assay: in vivo, rat. The source says: Trials began with an electrical stimulus followed by a 7.5-s response window within which the animal could make a response to receive a second contingent stimulus identical to the initial noncontingent stimulus. A response during this 7.5-s window was considered a positive response, whereas the lack of a response was considered a negative response. Additional responses during a 2-s period immediately following a positive response had no consequence. The intertrial interval (ITI) that followed either a positive response or the end of the response window (in the case of a negative response) ranged from 7.5 to 12.5 s with an average duration of 10 s. […] Subjects then were tested on a current-threshold procedure in which stimulus intensities were varied during four alternating descending and ascending series with a step size of […]. Blocks of three trials were offered at each current step with the starting current of the first descending series set at […] above the subjects' individual baseline thresholds estimated at the end of preliminary training. […] An ascending series was terminated after two consecutive blocks of trials during which the animal made positive responses on at least two out of the three trials or after 15 successive increments were presented. The mean of the four current thresholds from the alternating series was defined as the subject's ICSS threshold for that session. A series was terminated after either 15 stimulus increments (or decrements) had occurred, or after the determination of the threshold for the series (see below). Each test session typically lasted 30 min.
Naive animals were prepared with osmotic minipumps containing either an individualized nicotine solution (3.16 mg/kg per day, free base) or saline. […] After implantation of the minipumps, thresholds were assessed daily thereafter to assess the effects of chronic nicotine exposure on reward thresholds. Seven days (exactly seven 24-h periods) after pump insertion, the pumps were removed in order to precipitate the nicotine withdrawal syndrome. ICSS thresholds were measured 12, 18, 24, 36, 48 and 72 h after pump removal. Animals were injected with bupropion (0, 10, 20, 40 mg/kg IP; n=8-11) 30 min prior to the 18-h time point.

The subject of assay [2] is male Wistar rats.
Description: Trials began with an electrical stimulus followed by a 7.5-s response window within which the animal could make a response to receive a second contingent stimulus identical to the initial noncontingent stimulus. A response during this 7.5-s window was considered a positive response, whereas the lack of a response was considered a negative response. Additional responses during a 2-s period immediately following a positive response had no consequence. The intertrial interval (ITI) that followed either a positive response or the end of the response window (in the case of a negative response) ranged from 7.5 to 12.5 s with an average duration of 10 s. […] Subjects then were tested on a current-threshold procedure in which stimulus intensities were varied during four alternating descending and ascending series with a step size of 5 mA. Blocks of three trials were offered at each current step with the starting current of the first descending series set at 30-40 mA above the subjects' individual baseline thresholds estimated at the end of preliminary training. […] An ascending series was terminated after two consecutive blocks of trials during which the animal made positive responses on at least two out of the three trials or after 15 successive increments were presented. The mean of the four current thresholds from the alternating series was defined as the subject's ICSS threshold for that session. A series was terminated after either 15 stimulus increments (or decrements) had occurred, or after the determination of the threshold for the series (see below). Each test session typically lasted 30 min.
The next assay relates to rats. Conditions: 28-day treatment, 20 mg/kg (McCarter and Kokkinidis 1988); cited from earlier work.
For assay [3], the system named is male Wistar rats. Briefly: ICSS reward thresholds under baseline conditions, bupropion. Conditions: bupropion 10-60 mg/kg IP, all doses tested, dose-dependent up to 40 mg/kg. It counts as in vivo, rat. As to the method:
For each quarter turn, subjects received a 500 ms train of 0.1 ms cathodal square wave pulses at a frequency of 100 Hz. After successful acquisition of the response, defined as 200 consecutive reinforcements within allotted time period (usually <20 min) subjects were trained on a modification of the Kornetsky and Esposito discrete-trial currentthreshold procedure (Kornetsky and Esposito 1979), as described previously by Markou and Koob (1992).
Trials began with an electrical stimulus followed by a 7.5-s response window within which the animal could make a response to receive a second contingent stimulus identical to the initial noncontingent stimulus. A response during this 7.5-s window was considered a positive response, whereas the lack of a response was considered a negative response. Additional responses during a 2-s period immediately following a positive response had no consequence. The intertrial interval (ITI) that followed either a positive response or the end of the response window (in the case of a negative response) ranged from 7.5 to 12.5 s with an average duration of 10 s. […] Subjects then were tested on a current-threshold procedure in which stimulus intensities were varied during four alternating descending and ascending series with a step size of 5 mA. […]

Assay [4] relates to male Wistar rats. The assay is described as follows: Somatic signs of the nicotine withdrawal syndrome. It counts as in vivo, rat. Conditions: for total number of somatic signs: 24 h post pump removal, 12.5 h postbupropion. As to the method: Rats were placed individually in transparent plastic cylindrical containers (30×38 cm) in which they could move freely. Subjects were habituated to the containers for 10 min each day over 3 days before the first test session. During the test sessions the rats were observed blindly by an experienced observer for 10 min and the frequency of the following signs was recorded based on a checklist of nicotine abstinence signs (Hildebrand et al. 1999; Watkins et al. 2000; Malin 2001): body shakes, chews, cheek tremors, escape attempts, eye blinks, foot licks, gasps, genital licks, head shakes, ptosis, scratches, teeth chattering, writhes and yawns. Multiple successive counts of any sign required a distinct pause between episodes. Ptosis, if present continuously, was only counted once per minute. For statistical analyses, the total number of somatic signs was defined as the sum of individual occurrences of the above mentioned withdrawal signs. Further, the categories of “abdominal constrictions” included gasps and writhes; “facial fasciculation” included cheek tremors, chews, and teeth chattering; and “miscellaneous other signs” included shakes, escape attempts, licks, scratches, and yawns.
Separate drug-naive rats were prepared with osmotic minipumps containing nicotine (3.16 mg/kg per day for 7 days) dissolved in saline. […] Further, this nicotine dose was selected to allow direct comparison of the effects of bupropion on somatic signs (present experiment 4) and on reward threshold elevations (experiment 3 described above) observed during nicotine withdrawal. To induce the somatic signs of nicotine withdrawal the minipumps were removed 6 days and 18 h after implantation. The behavioral observations were conducted 6, 12 and 24 h after the removal of the minipumps. The rats were injected with bupropion (0, 5, 10, 20, 40 mg/kg, IP; n=6-8), 30 min prior to the 12-h time point. The selection of the time points was based on the time-course of the expression of the somatic signs after the termination of nicotine exposure (Epping-Jordan et al. 1998; Harrison et al. 2001a; Semenova and Markou 2003; Skjei and Markou 2003).

The next assay concerns the target T1, dopamine transporter (Homo sapiens, UniProt Q01959).
T1 construct: host or cells: living human brain (in vivo imaging)
Conditions: therapeutically effective doses, humans (Meyer et al. 2002); cited from earlier work.

Counter-ions that a name gives are not always drawn. Like-named read-outs stand apart in the source and are kept apart here.

T1 sequence (Q01959 whole entry): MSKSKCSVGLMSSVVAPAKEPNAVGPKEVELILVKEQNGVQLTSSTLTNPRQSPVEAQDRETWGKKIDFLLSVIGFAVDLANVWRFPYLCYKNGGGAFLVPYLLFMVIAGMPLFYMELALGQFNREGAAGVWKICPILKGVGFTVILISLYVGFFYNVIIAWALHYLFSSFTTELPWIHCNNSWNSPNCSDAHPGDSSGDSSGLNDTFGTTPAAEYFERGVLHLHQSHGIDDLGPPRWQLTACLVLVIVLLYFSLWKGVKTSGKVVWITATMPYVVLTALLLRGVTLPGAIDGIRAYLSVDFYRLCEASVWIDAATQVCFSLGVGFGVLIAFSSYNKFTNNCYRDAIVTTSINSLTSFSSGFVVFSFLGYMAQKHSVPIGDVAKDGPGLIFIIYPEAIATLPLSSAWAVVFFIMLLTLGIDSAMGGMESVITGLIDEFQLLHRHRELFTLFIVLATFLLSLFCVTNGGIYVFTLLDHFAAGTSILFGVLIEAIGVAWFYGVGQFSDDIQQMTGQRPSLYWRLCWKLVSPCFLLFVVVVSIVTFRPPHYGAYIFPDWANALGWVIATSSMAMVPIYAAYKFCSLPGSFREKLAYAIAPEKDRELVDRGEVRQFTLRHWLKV

Turning to `CC(NC(C)(C)C)C(=O)c1cccc(Cl)c1` (stereo not drawn) [bupropion, Bupropion hydrochloride], the “area under the curve of the threshold data, 72-h withdrawal period” value in the assay with male Wistar rats [1] (bupropion 40 mg/kg, nicotine-pretreated animals) is recorded as “completely reversed”. Also, the reward thresholds result with male Wistar rats [1] (bupropion 40 mg/kg, nicotine-pretreated animals, 24 h time point) is “still exhibited a significant (P<0.001) reduction in reward thresholds”; in the assay with male Wistar rats [1] (bupropion 10, 20, 40 mg/kg, thirty minutes after administration (18-h time point), nicotine- or saline-pretreated) it was “significant and dose-dependent lowering of reward thresholds at all doses”. For the same compound, the reduction in threshold result with male Wistar rats [1] (bupropion, saline pretreated animals, 24 h) was “short-lived and completely reversed at the next time point tested”. Besides, the brain reward thresholds entry with male Wistar rats [2] (bupropion 5 mg/kg alone) is listed as “without effect on reward thresholds when given alone”; in the assay on male Wistar rats [2] (bupropion 10 and 20 mg/kg in combination with nicotine 0.25 mg/kg), “resulted in threshold lowerings that were not significantly different from threshold lowerings induced by nicotine administration alone”; with male Wistar rats [2] (bupropion 10 and 20 mg/kg, saline co-treated), “lowered brain reward thresholds in animals that were co-treated with saline”; with male Wistar rats [3], “lowered brain reward thresholds compared to the vehicle conditions”. For the same compound, the “reward-enhancing effects of acute nicotine” value with male Wistar rats [2] (bupropion 5 mg/kg with nicotine 0.25 mg/kg) is “completely reversed the reward-enhancing effects of acute nicotine”. Besides, in the assay on rats, the “rate of responding for ICSS” value is on record as “had no effect on the rate of responding for ICSS”. In addition, the “long-term effect on somatic signs” value with male Wistar rats [4] (acute bupropion, 12.5 h) was “has no long-term (12.5 h) effect on the expression of the somatic signs of nicotine withdrawal”. Besides, the “total number of somatic signs” value in the assay with male Wistar rats [4] (bupropion 5 mg/kg) is on record as 18.6±4; in the assay with male Wistar rats [4] (bupropion 10 mg/kg), 17.1±4.6; in the assay on male Wistar rats [4] (bupropion 20 mg/kg) it was 14.1±2.2; with male Wistar rats [4] (bupropion 40 mg/kg) it was 14.6±2.6. The “abdominal constrictions (writhes and gasps)” value in the assay on male Wistar rats [4] (bupropion 10-40 mg/kg, 12-h withdrawal time point) was “reversed the withdrawal-induced increase in abdominal constrictions”. Further, the total somatic signs result in the assay on male Wistar rats [4] (bupropion 20-40 mg/kg, 30 min prior to the 12-h withdrawal timepoint) is listed as “resulted in a reversal of the expression of total somatic signs”. Besides, on dopamine transporter, the “occupancy at the dopamine transporter” value is 22%.
